Assay [1] concerns Nucleic Acid. Kind of assay: In vitro ability to cleave DNA using supercoiled pM2 DNA without beta-mercaptoethanol at drug concentrations of 2E-5; Greater activity. Format: functional.
Assay [2] has as its system Nucleic Acid. Kind of assay: In vitro DNA cleaving activity which induce cell filamentation was evaluated by inducement of the SOS response at a dose of 1000 ug/ml. In kind it is functional.
Assay [3] has as its system Nucleic Acid. Kind of assay: In vitro DNA cleaving activity which induce cell filamentation was evaluated by inducement of the SOS response at a dose of 200 ug/ml. In kind it is functional.
Assay [4] relates to Nucleic Acid. Kind of assay: In vitro DNA cleaving activity which induce cell filamentation was evaluated by inducement of the SOS response at a dose of 40 ug/ml. In kind it is functional.
The test system of assay [5] is Nucleic Acid. Kind of assay: In vitro ability to cleave DNA using supercoiled pM2 DNA with beta-mercaptoethanol at drug concentrations of 2E-5; Greater activity. In kind it is functional.
Assay [6] concerns HCT-116. Kind of assay: Inhibitory concentration was determined for cytotoxicity in HCT116 human colon cancer cell line. Format: functional, cell-based.
Assay [7] concerns Mus musculus. Kind of assay: In vivo relative median survival time of drug treated and control mice in murine Madison 109 (M109) lung carcinoma cells at 64 mg/kg/inj. Format: functional.
Assay [8] has as its system HCT-116. Kind of assay: Inhibitory concentration was determined for cytotoxicity in HCT116 human colon cancer cell line. Format: functional, cell-based.
Assay [9] has as its system Nucleic Acid. Kind of assay: In vitro ability to cleave DNA using supercoiled pM2 DNA without beta-mercaptoethanol at a drug concentration of 2E-5; Greater activity. In kind it is functional.
The subject of assay [10] is Nucleic Acid. Kind of assay: In vitro ability to cleave DNA using supercoiled pM2 DNA with beta-mercaptoethanol at a drug concentration of 2E-5; Greater activity. In kind it is functional.
Assay [11] has as its system Mus musculus. Kind of assay: In vivo relative median survival time of drug treated and control mice in murine Madison 109 (M109) lung carcinoma cells at 16 mg/kg/inj. In kind it is functional.

Molecules are shown by their SMILES.

For `O=C1C2=CCCC1(O)C#CC1=C(C#C[C@H]2O)CCC1` (stereo partly specified), the DNA cleavage entry in the assay on Nucleic Acid [1] and in the assay on Nucleic Acid [5] was “Greater activity” each time. For the same compound, the Area with Nucleic Acid [2] worked out at 162 mm²; in the assay on Nucleic Acid [3], 75 mm²; with Nucleic Acid [4] it was 0 mm². The same compound registered an IC50 in the assay on HCT-116 [6] of 2.2 µM. In addition, the T/C with Mus musculus [7] came out at 147%.

In the case of `O=C1C2=CCCC1(O)C#Cc1ccccc1C#C[C@H]2O` (stereo partly specified), the DNA cleavage entry with Nucleic Acid [1] and with Nucleic Acid [5] was “Greater activity” in each case. In addition, the Area in the assay with Nucleic Acid [2], in the assay on Nucleic Acid [3] and in the assay on Nucleic Acid [4] was 0 mm² in each case. The compound further gave an IC50 in the assay with HCT-116 [8] of 1.8 µM. This compound registered a T/C in the assay with Mus musculus [7] of 107%.

With `O=C1C2=CCCC1(O)C#C/C=C\C#C[C@H]2O` (stereo partly specified), the DNA cleavage entry in the assay with Nucleic Acid [9] and with Nucleic Acid [10] was “Greater activity” each time. Besides, the Area in the assay on Nucleic Acid [2] was determined as 1620 mm²; with Nucleic Acid [3], 954 mm²; with Nucleic Acid [4], 427 mm². The compound further had a half-inhibitory concentration (IC50) with HCT-116 [8] of 0.1 µM. Besides, the T/C in the assay on Mus musculus [11] is 144%.

For orientation: IC50 means the point on the concentration scale where inhibition reaches its midpoint. As a reminder, the T/C is the result in the treated group divided by that in the control group, in per cent.

The values are drawn from ChEMBL document CHEMBL1153652, “Synthesis and biological activity of modified enediyne chemotypes” (Bioorg Med Chem Lett, 1994).
